Read-outs that look alike come from different tables or passages of the source.
Key:
Type in all cases: in vivo
rice (Oryza sativa) = assay: Test B flooded paddy test, rice; settings: Oryza sativa; 250 g ai/ha, Flood; visually evaluated after 10 to 14 days; read-out: Plant response rating, Rice (0 to 100 scale where 0 is no effect and 100 is complete control)
Procedure, shortened: (§1)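 2-leaf plants; pots flooded to 3 cm; compound applied to paddy water; depth kept constant; greenhouse 10–14 d; visual rating vs untreated, 0 = no effect, 100 = complete control.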

[1] = system: ducksalad (Heteranthera limosa); assay: Test B flooded paddy test, ducksalad; settings: Heteranthera limosa; 250 g ai/ha, Flood; visually evaluated after 10 to 14 days; read-out: Plant response rating, Ducksalad (0 to 100 scale where 0 is no effect and 100 is complete control)
Procedure, shortened: as §1

[2] = system: ragweed (common ragweed, Ambrosia artemisiifolia); assay: Test A postemergence, ragweed; settings: Ambrosia artemisiifolia, post-emergence, 240 h, 10 days, read-out: Plant response rating, Ragweed; for pest or weed control at 31 g/ha: 31 g ai/ha, postemergence, 0 to 100 scale (0 no effect, 100 complete control); for pest or weed control at 125 g/ha: Postemergence, 125 g ai/ha, 0 to 100 scale
Procedure, shortened: (§2)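 Pre: soil-directed spray on seeded loam/sand pots. Post: spray on 2–10 cm seedlings, 1–2 leaves. Surfactant-containing solvent vehicle. Greenhouse 10 d; visual % control vs untreated.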

[3] = system: sedge, umbrella (small-flower umbrella sedge, Cyperus difformis); assay: Test B flooded paddy test, sedge, umbrella; settings: Cyperus difformis; 250 g ai/ha, Flood; visually evaluated after 10 to 14 days; read-out: Plant response rating, Sedge, Umbrella (0 to 100 scale where 0 is no effect and 100 is complete control)
Procedure, shortened: as §1

[4] = system: blackgrass (Alopecurus myosuroides); assay: Test A postemergence, blackgrass; settings: Alopecurus myosuroides, post-emergence, 240 h, 10 days, read-out: Plant response rating, Blackgrass; for pest or weed control at 31 g/ha: 31 g ai/ha; for pest or weed control at 125 g/ha: 125 g ai/ha
Procedure, shortened: as §2

[5] = system: redroot pigweed (Amaranthus retroflexus); assay: Test A preemergence, redroot pigweed; settings: 0 to 100 scale, 10 days
Procedure, shortened: as §2

[6] = system: ryegrass, Italian (Italian ryegrass, Lolium multiflorum); assay: Test A postemergence, ryegrass, Italian; settings: Lolium multiflorum, post-emergence, 240 h, 10 days, read-out: Plant response rating, Ryegrass, Italian; for pest or weed control at 31 g/ha: 31 g ai/ha, postemergence, 0 to 100 scale (0 no effect, 100 complete control); for pest or weed control at 125 g/ha: Postemergence, 125 g ai/ha, 0 to 100 scale
Procedure, shortened: as §2

[7] = system: barnyardgrass (Echinochloa crus-galli); assay: Test B flooded paddy test, barnyardgrass; settings: Echinochloa crus-galli; 250 g ai/ha, Flood; visually evaluated after 10 to 14 days; read-out: Plant response rating, Barnyardgrass (0 to 100 scale where 0 is no effect and 100 is complete control)
Procedure, shortened: as §1

[8] = system: foxtail, giant (giant foxtail, Setaria faberi); assay: Test A postemergence, foxtail, giant; settings: Setaria faberi, post-emergence, 240 h, 10 days, read-out: Plant response rating, Foxtail, Giant; for pest or weed control at 31 g/ha: 31 g ai/ha; for pest or weed control at 125 g/ha: 125 g ai/ha
Procedure, shortened: as §2

[9] = system: ragweed (common ragweed, Ambrosia artemisiifolia); assay: Test A preemergence, ragweed; settings: Ambrosia artemisiifolia, pre-emergence, 240 h, 0 to 100 scale, 10 days, read-out: Plant response rating, Ragweed; for pest or weed control at 31 g/ha: 31 g ai/ha; for pest or weed control at 125 g/ha: 125 g ai/ha
Procedure, shortened: as §2

[10] = system: foxtail, giant (giant foxtail, Setaria faberi); assay: Test A preemergence, foxtail, giant; settings: Setaria faberi, pre-emergence, 240 h, 0 to 100 scale, 10 days, read-out: Plant response rating, Foxtail, Giant; for pest or weed control at 31 g/ha: 31 g ai/ha; for pest or weed control at 125 g/ha: 125 g ai/ha
Procedure, shortened: as §2

[11] = system: galium (catchweed bedstraw, Galium aparine); assay: Test A postemergence, galium; settings: Galium, post-emergence, 240 h, 10 days, read-out: Plant response rating, Galium; for pest or weed control at 31 g/ha: 31 g ai/ha, postemergence, 0 to 100 scale (0 no effect, 100 complete control); for pest or weed control at 125 g/ha: Postemergence, 125 g ai/ha, 0 to 100 scale
Procedure, shortened: as §2

[12] = system: barnyardgrass (Echinochloa crus-galli); assay: Test A preemergence, barnyardgrass; settings: 10 days
Procedure, shortened: as §2

[13] = system: ryegrass, Italian (Italian ryegrass, Lolium multiflorum); assay: Test A preemergence, ryegrass, Italian; settings: Lolium multiflorum, pre-emergence, 240 h, 0 to 100 scale, 10 days, read-out: Plant response rating, Ryegrass, Italian; for pest or weed control at 31 g/ha: 31 g ai/ha; for pest or weed control at 125 g/ha: 125 g ai/ha
Procedure, shortened: as §2

[14] = system: redroot pigweed (Amaranthus retroflexus); assay: Test A postemergence, redroot pigweed; settings: 10 days
Procedure, shortened: as §2

[15] = system: barnyardgrass (Echinochloa crus-galli); assay: Test A postemergence, barnyardgrass; settings: 10 days
Procedure, shortened: as §2

[16] = 125 g ai/ha, 0 to 100 scale (0 no effect, 100 complete control)
[17] = 31 g ai/ha, postemergence, 0 to 100 scale (0 no effect, 100 complete control)
[18] = Postemergence, 125 g ai/ha, 0 to 100 scale
[19] = Postemergence, 31 g ai/ha, 0 to 100 scale
[20] = postemergence, 0 to 100 scale (0 no effect, 100 complete control)

CC(=O)OCOc1c(Cl)nn(C)c(=O)c1-c1c(C)ccc2ccc(C)cc12 [Compound 3, 5-[(Acetyloxy)methoxy]-6-chloro-4-(2,7-dimethyl-1-naphthalenyl)-2-methyl-3(2H)-pyridazinone]
plant injury at 250 g/ha (rice (Oryza sativa)): 0% | pest or weed control at 250 g/ha [1]: 95% | pest or weed control at 31 g/ha [2]: 90% | pest or weed control at 125 g/ha [2]: 100% | pest or weed control at 250 g/ha [3]: 98% | pest or weed control at 31 g/ha ([4]; Postemergence, 0 to 100 scale): 10% | pest or weed control at 125 g/ha ([4]; Postemergence, 0 to 100 scale): 30% | Plant response rating, Pigweed, Redroot ([5]; 31 g ai/ha): 100 | Plant response rating, Pigweed, Redroot ([5]; 125 g ai/ha): 100 | pest or weed control at 31 g/ha [6]: 80% | pest or weed control at 125 g/ha [6]: 100% | pest or weed control at 250 g/ha [7]: 98% | pest or weed control at 31 g/ha ([8]; Postemergence, 0 to 100 scale): 80% | pest or weed control at 125 g/ha ([8]; Postemergence, 0 to 100 scale): 90% | pest or weed control at 31 g/ha [9]: 90% | pest or weed control at 125 g/ha [9]: 90% | pest or weed control at 31 g/ha [10]: 10% | pest or weed control at 125 g/ha [10]: 100% | pest or weed control at 31 g/ha [11]: 100% | pest or weed control at 125 g/ha [11]: 100% | Plant response rating, Barnyardgrass ([12]; 31 g ai/ha, 0 to 100 scale): 60 | Plant response rating, Barnyardgrass [12, 16]: 100 | pest or weed control at 31 g/ha [13]: 20% | pest or weed control at 125 g/ha [13]: 100% | Plant response rating, Pigweed, Redroot [14, 17]: 100 | Plant response rating, Pigweed, Redroot [14, 18]: 100 | Plant response rating, Barnyardgrass [15, 19]: 60 | Plant response rating, Barnyardgrass [15, 18]: 90

CC(=O)OCOc1c(Cl)nn(C)c(=O)c1-c1c2ccccc2cc2ccccc12 [Compound 10, 5-[(acetyloxy)methoxy]-4-(9-anthracenyl)-6-chloro-2-methyl-3(2H)-pyridazinone]
plant injury at 250 g/ha (rice (Oryza sativa)): 0% | pest or weed control at 250 g/ha [1]: 95% | pest or weed control at 31 g/ha [2]: 100% | pest or weed control at 125 g/ha [2]: 100% | pest or weed control at 250 g/ha [3]: 95% | pest or weed control at 31 g/ha ([4]; Postemergence, 0 to 100 scale): 30% | pest or weed control at 125 g/ha ([4]; Postemergence, 0 to 100 scale): 0% | Plant response rating, Pigweed, Redroot ([5]; 31 g ai/ha): 100 | Plant response rating, Pigweed, Redroot ([5]; 125 g ai/ha): 100 | pest or weed control at 31 g/ha [6]: 0% | pest or weed control at 125 g/ha [6]: 0% | pest or weed control at 250 g/ha [7]: 15% | pest or weed control at 31 g/ha ([8]; Postemergence, 0 to 100 scale): 10% | pest or weed control at 125 g/ha ([8]; Postemergence, 0 to 100 scale): 50% | pest or weed control at 31 g/ha [9]: 40% | pest or weed control at 125 g/ha [9]: 40% | pest or weed control at 31 g/ha [10]: 0% | pest or weed control at 125 g/ha [10]: 20% | pest or weed control at 31 g/ha [11]: 90% | pest or weed control at 125 g/ha [11]: 100% | Plant response rating, Barnyardgrass ([12]; 31 g ai/ha, 0 to 100 scale): 0 | Plant response rating, Barnyardgrass [12, 16]: 0 | pest or weed control at 31 g/ha [13]: 0% | pest or weed control at 125 g/ha [13]: 10% | Plant response rating, Pigweed, Redroot [14, 17]: 100 | Plant response rating, Pigweed, Redroot [14, 18]: 100 | Plant response rating, Barnyardgrass [15, 19]: 20 | Plant response rating, Barnyardgrass [15, 18]: 10

CC(=O)OCOc1c(C)nn(C)c(=O)c1-c1c2cc(C)ccc2cc2ccc(F)cc12 [Compound 24, 5-[(acetyloxy)methoxy]-4-(2-fluoro-7-methyl-9-anthracenyl)-2,6-dimethyl-3(2H)-pyridazinone]
plant injury at 250 g/ha (rice (Oryza sativa)): 50% | pest or weed control at 250 g/ha [1]: 75% | pest or weed control at 31 g/ha [2]: 80% | pest or weed control at 125 g/ha [2]: 100% | pest or weed control at 250 g/ha [3]: 80% | pest or weed control at 31 g/ha [4, 20]: 0% | pest or weed control at 125 g/ha ([4]; Postemergence, 0 to 100 scale): 20% | Plant response rating, Pigweed, Redroot ([5]; 31 g ai/ha): 100 | Plant response rating, Pigweed, Redroot ([5]; 125 g ai/ha): 100 | pest or weed control at 31 g/ha [6]: 90% | pest or weed control at 125 g/ha [6]: 90% | pest or weed control at 250 g/ha [7]: 70% | pest or weed control at 31 g/ha [8, 20]: 90% | pest or weed control at 125 g/ha ([8]; Postemergence, 0 to 100 scale): 90% | pest or weed control at 31 g/ha [9]: 90% | pest or weed control at 125 g/ha [9]: 90% | pest or weed control at 31 g/ha [10]: 90% | pest or weed control at 125 g/ha [10]: 100% | pest or weed control at 31 g/ha [11]: 100% | pest or weed control at 125 g/ha [11]: 100% | Plant response rating, Barnyardgrass ([12]; 31 g ai/ha, 0 to 100 scale): 60 | Plant response rating, Barnyardgrass [12, 16]: 90 | pest or weed control at 31 g/ha [13]: 50% | pest or weed control at 125 g/ha [13]: 80% | Plant response rating, Pigweed, Redroot [14, 17]: 100 | Plant response rating, Pigweed, Redroot [14, 18]: 100 | Plant response rating, Barnyardgrass [15, 17]: 80 | Plant response rating, Barnyardgrass [15, 18]: 90
